Results published in the supplement of paper PMC10307832.

Tests used:
Assay in all cases: relative viability (nuclei count vs DMSO), 5 days (fraction); higher = more cells survive
Idelalisib + Phenformin = compound: CC[C@H](Nc1ncnc2[nH]cnc12)c1nc2cccc(F)c2c(=O)n1-c1ccccc1 [Idelalisib] + N=C(N)NC(=N)NCCc1ccccc1 [Phenformin] (partner 250 µM)
Procedure, shortened: (§1)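 Lung cancer cell lines, seeded in 1536-well plates, were treated the following day by pin tool with a single drug or with five library-drug doses (not always all listed) in √10 steps on top of a fixed anchor-drug dose. Cells were fixed and nuclei stained in one step after 5 days, and nuclei were counted. Relative viability is the nuclei count for treated wells divided by that for vehicle wells, reported as medians of duplicate plates.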

Pemetrexed + Palbociclib = compound: Nc1nc2[nH]cc(CCc3ccc(C(=O)N[C@@H](CCC(=O)O)C(=O)O)cc3)c2c(=O)[nH]1 [Pemetrexed] + CC(=O)c1c(C)c2cnc(Nc3ccc(N4CCNCC4)cn3)nc2n(C2CCCC2)c1=O [Palbociclib] (partner 0.5 µM)
Procedure, shortened: as §1

Idelalisib + Luminespib = compound: CC[C@H](Nc1ncnc2[nH]cnc12)c1nc2cccc(F)c2c(=O)n1-c1ccccc1 [Idelalisib] + CCNC(=O)c1noc(-c2cc(C(C)C)c(O)cc2O)c1-c1ccc(CN2CCOCC2)cc1 [Luminespib] (partner 0.01 µM)
Procedure, shortened: as §1

Pemetrexed + OSI-027 = compound: Nc1nc2[nH]cc(CCc3ccc(C(=O)N[C@@H](CCC(=O)O)C(=O)O)cc3)c2c(=O)[nH]1 [Pemetrexed] + COc1cccc2cc(-c3nc([C@H]4CC[C@H](C(=O)O)CC4)n4ncnc(N)c34)[nH]c12 [OSI-027] (partner 0.5 µM)
Procedure, shortened: as §1

Row | Cell Line | relative viability (Idelalisib + Phenformin; first compound 0.04 µM) | relative viability (Idelalisib + Phenformin; first compound 0.1265 µM) | relative viability (Idelalisib + Phenformin; first compound 0.4 µM) | relative viability (Idelalisib + Phenformin; first compound 1.265 µM) | relative viability (Idelalisib + Phenformin; first compound 4 µM) | relative viability (Pemetrexed + Palbociclib; first compound 0.002 µM) | relative viability (Pemetrexed + Palbociclib; first compound 0.006325 µM) | relative viability (Pemetrexed + Palbociclib; first compound 0.02 µM) | relative viability (Pemetrexed + Palbociclib; first compound 0.06325 µM) | relative viability (Pemetrexed + Palbociclib; first compound 0.2 µM) | relative viability (Idelalisib + Luminespib; first compound 0.04 µM) | relative viability (Idelalisib + Luminespib; first compound 0.1265 µM) | relative viability (Idelalisib + Luminespib; first compound 0.4 µM) | relative viability (Idelalisib + Luminespib; first compound 1.265 µM) | relative viability (Idelalisib + Luminespib; first compound 4 µM) | relative viability (Pemetrexed + OSI-027; first compound 0.002 µM) | relative viability (Pemetrexed + OSI-027; first compound 0.006325 µM) | relative viability (Pemetrexed + OSI-027; first compound 0.02 µM) | relative viability (Pemetrexed + OSI-027; first compound 0.06325 µM) | relative viability (Pemetrexed + OSI-027; first compound 0.2 µM)
1 | A-427 | 0.36 | 0.318 | 0.287 | 0.372 | 0.328 | 0.505 | 0.529 | 0.572 | 0.509 | 0.483 | 0.833 | 0.857 | 0.744 | 0.879 | 0.783 | 0.422 | 0.431 | 0.481 | 0.466 | 0.402
2 | BEN | 0.277 | 0.27 | 0.262 | 0.28 | 0.281 | 0.544 | 0.473 | 0.531 | 0.457 | 0.458 | 0.333 | 0.459 | 0.232 | 0.416 | 0.242 | 0.318 | 0.301 | 0.302 | 0.296 | 0.332
3 | NCI-H2347 | 0.395 | 0.386 | 0.372 | 0.284 | 0.313 | 0.448 | 0.413 | 0.505 | 0.4 | 0.388 | 0.506 | 0.581 | 0.448 | 0.362 | 0.532 | 0.296 | 0.292 | 0.49 | 0.406 | 0.339
4 | LCLC-103H | 0.367 | 0.312 | 0.275 | 0.33 | 0.314 | 0.465 | 0.454 | 0.496 | 0.443 | 0.479 | 0.998 | 0.731 | 0.757 | 0.933 | 0.794 | 0.409 | 0.474 | 0.549 | 0.463 | 0.553
5 | NCI-H650 | 0.519 | 0.429 | 0.446 | 0.487 | 0.457 | 0.344 | 0.298 | – | 0.348 | 0.313 | 0.894 | 0.703 | 0.648 | 0.869 | 0.765 | 0.536 | 0.562 | 0.551 | 0.507 | 0.532
6 | NCI-H1975 | 0.426 | 0.418 | 0.369 | 0.408 | 0.357 | 0.306 | 0.562 | 0.606 | 0.375 | 0.237 | 0.216 | 0.157 | 0.16 | 0.213 | 0.207 | 0.528 | 0.681 | 0.873 | 0.557 | 0.394
7 | NCI-H2126 | 0.575 | 0.57 | 0.441 | 0.528 | 0.527 | 0.363 | 0.327 | 0.409 | 0.339 | 0.359 | 0.929 | 0.893 | 0.802 | 0.961 | 0.929 | 0.601 | 0.805 | 0.808 | 0.796 | 0.691
8 | NCI-H2087 | 0.515 | 0.494 | 0.36 | 0.5 | 0.326 | 0.161 | 0.221 | 0.245 | 0.217 | 0.214 | 0.198 | 0.213 | 0.16 | 0.165 | 0.115 | 0.55 | 0.512 | 0.538 | 0.589 | 0.524
